Values of other authors in patent US20150141462A1, “PHARMACEUTICAL COMPOSITIONS AND METHODS FOR TREATING DRUG ADDICTION AND PREVENTING A DRUG RELAPSE” (priority 2012, published 2015).

Key:
[1] = not given; remark: listed apart in the source
[2] = tested on: animal models of addiction; details: mGluR5 antagonists

Row | Compound | extinction of cocaine-induced conditioned place preference (rats) | cocaine-seeking behavior (following intravenous self-administration) | reacquisition of cocaine self-administration (in vivo) | reinstatement ([1]; following methamphetamine self-administration) | extinction following methamphetamine self-administration ([1]; in vivo) | self-administration of drugs of abuse [2]
1 | N#Cc1cccc(C(=O)Nc2cc(-c3ccccc3)nn2-c2ccccc2)c1 [CDPPB, 3-cyano-N-(1,3-diphenyl-1H-pyrazol-5-yl)benzamide] | enhances extinction | reduces cocaine-seeking behavior | deters the reacquisition | reduced reinstatement slightly | improved extinction | –
2 | Cc1cccc(C#Cc2ccccc2)n1.Cl [MPEP, 2-methyl-6-(phenylethynyl)pyridine hydrochloride] | – | – | – | – | – | reduce self-administration of virtually all drugs of abuse
3 | Cc1nc(C#Cc2cccnc2)cs1 [MTEP, 3-((2-methyl-4-thiazolyl)ethynyl)pyridine] | – | – | – | – | – | reduce self-administration of virtually all drugs of abuse
